In patent publication US20050058745A1, “Use of Labiatae herb preparations for extending the flavor shelf life of malt beverages” (priority 2003, published 2005):

Tests used:
[1] = DCIP redox potential of mash (first wort); type: physicochemical; conditions: for Redox: 20 ppm in mash (20 mg/kg of mash), first wort
[2] = 3-Methylbutanal in headspace of aged beer; type: physicochemical; conditions: 20 ppm (RA + CA: 10 ppm each)
Method: The highly hopped beer from example 2 was treated with solutions of carnosic acid in ethanol, rosmarinic acid in ethanol or a mixture of carnosic acid and rosmarinic acid in ethanol as done previously. […] The bottles were fobbed to exclude air and crowned. • 3. “20 ppm CA+air” in which bottles were opened and 20 ppm CA added as above. These bottles received two puffs of air in the remaining headspace from a 25 mL bulb. They were crowned without fobbing • 4. “20 ppm RA” in which bottles were opened and 20 ppm rosmarinic acid added from a 2% solution. The bottles were fobbed and crowned. • 5. “20 ppm RA+air” which was done as in No. 4, with 20 ppm RA added. These bottles received the two puffs of air and were crowned without fobbing. • 6. “10 ppm RA+10 ppm CA” in which bottles were opened and 10 ppm each of carnosic and rosmarinic acids were added from pure solutions (178 μL of 2% solution per 12 oz bottle). Bottles were fobbed and crowned. • 7. “10 ppm RA+10 ppm CA+air” in which 10 ppm each of RA and CA was added. This treatment received two puffs of air and was not fobbed before closing. • 8. “Control+air” in which bottles were opened, given two puffs of air and crowned without fobbing. • 9. “Control” in which bottles were opened, fobbed and crowned. Treatments 2 through 9 were stored in a 40° C. hot room. At various times, bottles were opened and samples analyzed for phenylacetaldehyde and 3-methylbutanal by the method of “[…], et al. The results are shown in Table 19.

[3] = DPPH radical scavenging of highly hopped beer during aging at 40° C.; type: physicochemical; conditions: for effect on DPPH numbers: beers not treated with air; for effect on DPPH number: beers treated with air
Method: The bottle dosing methods used were the same as those described in Example 1. The following samples were made: • 1. 20 ppm Carnosic Acid • 2. 20 ppm Carnosic Acid plus Air • 3. 20 ppm Rosmarinic Acid • 4. 20 ppm Rosmarinic Acid plus Air • 5. 10 ppm Carnosic Acid+10 ppm Rosmarinic Acid • 6. 10 ppm Carnosic Acid+10 ppm Rosmarinic Acid+Air • 7. […] No Additions. Treatments 1 through 8 were put in a temperature regulated room set at 40° C. and maintained at ±1° C. At intervals of Zero time, 3 days, 7 days, 14 days, and 21 days, samples were withdrawn and Redox Potentials were measured by the method outlined in example 4. Color measurements were made using the L, a, b system on a Minolta Spectrophotometer model […], chroma and hue angle color measure units were recorded. DPPH radical scavenging numbers were measured using the following method. A de-ionized-H2O/EtOH buffer solution was prepared by dissolving 250 mg sodium citrate dihydrate and 10 g of absolute ethanol in 250 mL of deionized water. The solution was then titrated with 0.1 N Citric acid (6.404 g/L anhydrous citric acid) a drop at a time to reach a pH of between 4.35 and 4.5. To perform the test, about 0.04 g of DPPH was weighed to the nearest 0.1 mg in a 100 mL volumetric, recording the exact weight of DPPH. The DPPH was dissolved in methanol and methanol was added to bring the volume to the 100 mL mark. The solution was sonicated to facilitate dissolution. The beers to be measured were opened and 12 mL of each was poured into separate 15 mL centrifuge tubes, making sure that the volumes in all tubes were equal. The analyses were done in triplicate for each beer. An extra beer sample served as a spectrophotometer blank. The beer was degassed by centrifuging it for 15 min at 6,000 rpm. Into each of two 25 mL flasks was pipeted 5 mL of the pH 4.5 water-ethanol buffer. The spectrophotometer wavelength was set to 531 nm and a buffered water blank was zeroed. 1.0 mL of DPPH solution was added to the water buffer, which was swirled at the same time a timer was started. Just before 10 minutes had elapsed, the sample was transferred to a cuvette and the absorbance (ABL) was measured. The analysis was duplicated with another buffer. For accuracy it is necessary that great care be taken to add exactly 1 mL reagent. It is also important to swirl (mix) the samples consistently as the assay is sensitive to oxygen and to the amount of reagent used. Degassed beer was used to obtain a baseline at 531 nm. After centrifugation 5 mL of the beer was transferred into the appropriate labeled 25 mL flask. 1.0 mL of DPPH solution was added, the solution was swirled and the timer was started. The Absorbance ([…]) of the beer sample was recorded. This process was repeated for all samples. To eliminate any possible prejudice in order of analysis, samples were analyzed randomly. The following formula was used to calculate the amount of DPPH which reacts with 5 mL of beer: μmol DPPH=((1-[…]/ABL)×(g DPPH/394))×10^6

[4] = Trained panel flavor evaluation, highly hopped aromatic beer, forced aging; conditions: 20 ppm
Method: Separate solutions containing 2% pure rosmarinic acid or pure carnosic acid were prepared by weighing out 500 mg of each compound into separate volumetric flasks and diluting to 25 mL with 100% EtOH. The beer used in this study was the freshest material available, being coded Nov 03 […]. It was purchased at a local market. Bottle additions were done as in Example 1. The following samples were prepared: The bottles were placed in a heated room at 40±1° C. in the dark for varying amounts of time. After the allotted aging time, the bottles of beer were transferred to a dark refrigerator and stored at approximately 2to 4° C. until they were analyzed (always within 48 hours). Additional bottles from the same code were kept unopened in 2° to 4° C. storage. These unopened samples from the same beer code were labeled “Fresh Control” used to provide fresh samples for the trained panel. At the appropriate times, a trained 8-member panel evaluated the beers. […] Three beers were evaluated at each session-Fresh Control, Aged No Addition, and Aged Beer with one of the Labiatae treatments. The overall preference rank, the character and intensity of the aroma, the levels of paper/cardboard aroma and flavor, sour or off flavors, hang and astringency and bitterness quality and intensity were evaluated.

[5] = 0 days at 40° C., + Air, 20 ppm (RA + CA: 10 ppm each)
[6] = 0 days at 40° C., no air, 20 ppm (CA + RA: 10 ppm each)
[7] = 3 days at 40° C., + Air, 20 ppm (RA + CA: 10 ppm each)
[8] = 3 days at 40° C., no air, 20 ppm (CA + RA: 10 ppm each)
[9] = 7 days at 40° C., + Air, 20 ppm (RA + CA: 10 ppm each)
[10] = 7 days at 40° C., no air, 20 ppm (CA + RA: 10 ppm each)
[11] = 14 days at 40° C., + Air, 20 ppm (RA + CA: 10 ppm each)
[12] = 14 days at 40° C., no air, 20 ppm (CA + RA: 10 ppm each)
[13] = 21 days at 40° C., + Air, 20 ppm (RA + CA: 10 ppm each)
[14] = 21 days at 40° C., no air, 20 ppm (CA + RA: 10 ppm each)

Row | SMILES | Redox [1] | 3-Methylbutanal in the headspace of aged beer ([2]; Day 0, 40° C., + air) [Parts per million] | 3-Methylbutanal in the headspace of aged beer ([2]; Day 0, 40° C., no air) [Parts per million] | 3-Methylbutanal in the headspace of aged beer ([2]; Day 3, 40° C., + air) [Parts per million] | 3-Methylbutanal in the headspace of aged beer ([2]; Day 3, 40° C., no air) [Parts per million] | 3-Methylbutanal in the headspace of aged beer ([2]; Day 7, 40° C., + air) [Parts per million] | 3-Methylbutanal in the headspace of aged beer ([2]; Day 7, 40° C., no air) [Parts per million] | 3-Methylbutanal in the headspace of aged beer ([2]; Day 14, 40° C., + air) [Parts per million] | 3-Methylbutanal in the headspace of aged beer ([2]; Day 14, 40° C., no air) [Parts per million] | 3-Methylbutanal in the headspace of aged beer ([2]; Day 21, 40° C., + air) [Parts per million] | 3-Methylbutanal in the headspace of aged beer ([2]; Day 21, 40° C., no air) [Parts per million] | DPPH Number [3, 5] [μmol DPPH] | DPPH Number [3, 6] [μmol DPPH] | DPPH Number [3, 7] [μmol DPPH] | DPPH Number [3, 8] [μmol DPPH] | DPPH Number [3, 9] [μmol DPPH] | DPPH Number [3, 10] [μmol DPPH] | DPPH Number [3, 11] [μmol DPPH] | DPPH Number [3, 12] [μmol DPPH] | DPPH Number [3, 13] [μmol DPPH] | further results
1 | CC(C)c1cc2c(c(O)c1O)[C@@]1(C(=O)O)CCCC(C)(C)[C@@H]1CC2 [CA, carnosic acid] | 17.3 | 3.44 | 3.24 | 3.85 | 3.13 | 3.68 | 2.98 | 3.45 | 1.82 | 5.09 | 4.66 | 53.3 | 52.2 | 67.2 | 69.8 | 55.6 | 64.7 | 61.7 | 64.4 | 56.5 | enhancing effect on redox potential of mash relative to RA ([1]; 20 ppm): less by about half the effect seen with RA; DPPH Number [3, 14]: 60.5 μmol DPPH; effect on DPPH numbers [3]: Neither CA nor RA has much impact on DPPH numbers; effect on DPPH number [3]: preserves the DPPH number in beers that have been treated with air; panelists' preference for treated sample over Aged No Addition sample ([4]; 1 week 40° C.): 8 of 8 panelists preferred
2 | O=C(/C=C/c1ccc(O)c(O)c1)O[C@H](Cc1ccc(O)c(O)c1)C(=O)O [RA, rosmarinic acid] | 38.8 | 3.13 | 4.12 | 4.14 | 3.05 | 3.95 | 2.73 | 4.28 | 3.03 | 5.06 | 4.85 | 49.9 | 51.8 | 67.1 | 66.3 | 57.7 | 58.7 | 56.3 | 63.7 | 50.5 | DPPH Number [3, 14]: 57.5 μmol DPPH; effect on DPPH numbers [3]: Neither CA nor RA has much impact on DPPH numbers; effect on DPPH number [3]: preserves the DPPH number in beers that have been treated with air; panelists' preference for treated sample over Aged No Addition sample ([4]; 1 week 40° C.): 7 of 8 panelists preferred; panelists' preference for treated sample over Aged No Addition sample ([4]; 3 days 40° C.): 6 of 8 panelists preferred
